Data on 24 compounds can be found in patent publication US20070032521A1, “Use of c-kit inhibitors for treating type II diabetes” (AB Science, priority 2003, published 2007).

In data set [1] the target is T1, purified intracellular domain of c-kit (Homo sapiens, UniProt P10721).
T1 construct: purified intracellular domain of c-kit expressed in baculovirus; made in house
Description: in vitro TK inhibition assay (ELISA, phosphorylation of tyrosine containing target peptide). The class given is biochemical. The following applies: purified intracellular domain of c-kit expressed in baculovirus. As to the method: in vitro TK Inhibition Assays
Experiments were performed using purified intracellular domain of c-kit expressed in baculovirus. Estimation of the kinase activity was assessed by the phosphoiylation of tyrosine containing target peptide estimated by established ELISA assay.

A further data set relates to male db/db mice. Description: Effect of c-kit inhibitors on serum glucose, insulin, triglycerides, cholesterol and NEFA levels in db/db mice. The format is in vivo, mouse. The text has this: Effect of different c-kit inhibitors on serum glucose, insulin, triglycerides, cholesterol and non esterified fatty acids levels in db/db mice
The objective of this study is to assess the effects of different c-kit inhibitors on serum glucose, insulin, triglycerides, cholesterol and non esterified fatty acids levels in male db/db mice dosed orally, once-a-day, for 5 days.
30 male 9/11 weeks old C57BL/Ks J Rj-db (db/db) mice (Janvier, France or Harlan, France), weighing in the target range of 30 to 50 g, will be included in this study.
One to three days before beginning the treatments (T0), mice will be weighed and blood samples will be collected through the retro-orbital plexus under isoflurane anesthesia. Blood samples will be kept at room temperature for 5 to 10 min to form a spontaneous clot, then put in ice until they are centrifuged at 3500×g for 10-15 min at 4° C. An aliquot of serum will be used for measuring glucose levels.
Six groups of 5 mice will be formed with respect to homogeneous glycemia values by using a randomization table. Animal showing glycemia below 20 mM will be excluded from the study.
From T1 to T5, the mice will be weighed and dosed once daily for 5 consecutive days at constant time.
At T5, 2 hours after the last administration, blood samples will be collected through the retro-orbital plexus under isoflurane anesthesia. Blood samples will be kept at room temperature for 5 to 10 min to form a spontaneous clot, then put in ice until they are centrifuged at 3500×g for 10 min at 4° C. Serum will be aliquoted and frozen at −20° C. until use. After blood collection, the mice will be euthanized by cervical dislocation.
Serum glucose and triglycerides levels will be determined using the Synchron C×4 analyzer. Serum non esterified fatty acids levels will be measured manually using a colorimetric method, and insulin levels determined by ELISA.
The results will be expressed as mean±SEM: • Glucose levels (mM) at T5 • Insulin levels (nM) at T5 • Triglycerides levels (mM) at T5 • Non esterified fatty acids levels (mM) at T5
For each parameter, a % of effect will be calculated according to following formula: ((vehicle group−test group)/vehicle group)*100
Statistical analysis will consist in a one-way analysis of variance followed by multiple comparisons versus the vehicle group (Dunnett's test). In case the equal variance test fails, a Kruskall-Wallis one-way analysis of variance on ranks will be proposed. A difference will be considered significant for p<0.05.

Where [2] appears, read: as compared to vehicle, 10 mg/kg p.o. for 5 days.
[3] abbreviates: serum, male db/db mice, 10 mg/kg p.o. once daily for 5 days, T5, mean ± SEM, n = 5.

T1 sequence (P10721 546-976 limits assumed): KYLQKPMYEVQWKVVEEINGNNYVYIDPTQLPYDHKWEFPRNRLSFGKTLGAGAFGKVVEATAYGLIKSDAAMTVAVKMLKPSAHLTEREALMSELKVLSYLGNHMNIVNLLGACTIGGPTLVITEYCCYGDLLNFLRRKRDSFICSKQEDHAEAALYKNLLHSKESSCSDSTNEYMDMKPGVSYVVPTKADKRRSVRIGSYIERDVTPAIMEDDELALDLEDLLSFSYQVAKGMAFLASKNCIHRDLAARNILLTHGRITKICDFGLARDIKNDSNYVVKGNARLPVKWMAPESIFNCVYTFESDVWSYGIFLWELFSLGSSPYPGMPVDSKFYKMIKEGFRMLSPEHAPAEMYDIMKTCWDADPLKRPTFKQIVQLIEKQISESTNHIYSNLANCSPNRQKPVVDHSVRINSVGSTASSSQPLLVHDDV

The IC50 is the concentration needed to halve the response being measured. High values mean weaker potency in that assay, low ones greater potency in that assay. Turning to `Cc1ccc(NC(=O)Nc2ccc(F)cc2)cc1Nc1nc(-c2cccnc2)cs1` [Compound 012, 1-(4-Fluoro-phenyl)-3-[4-methyl-3-(4-pyridin-3-yl-thiazol-2-ylamino)-phenyl]-urea], in data set [1], the half-inhibitory concentration (IC50) was < 10 µM.
As for `Cc1ccc(NC(=O)N(C(=O)NC2CCCCC2)C2CCCCC2)cc1Nc1nc(-c2cccnc2)cs1` [Compound 016, 1-Cyclohexyl-1-(N-Cyclohexyl-formamide)-3-[4-methyl-3-(4-pyridin-3-yl-thiazol-2-ylamino)-phenyl]-urea], the IC50 in data set [1] is < 10 µM.
Still for that read-out and setting: the result for `Cc1ccc(NC(=O)Nc2ccc(OC(F)F)cc2)cc1Nc1nc(-c2cccnc2)cs1` [Compound 021, 1-(4-Difluoromethoxy-phenyl)-3-[4-methyl-3-(4-pyridin-3-yl-thiazol-2-ylamino)-phenyl]-urea] reads < 10 µM.
One may read the melting point as the temperature, or range, at which the solid turns liquid. Take `Cc1ccc(NC(=O)Nc2cccc(F)c2)cc1Nc1nc(-c2cccnc2)cs1` [Compound 025, 1-(3-Fluoro-phenyl)-3-[4-methyl-3-(4-pyridin-3-yl-thiazol-2-ylamino)-phenyl]-urea]: the melting point fell in the range of 210 to 215 °C. The concentration for half-maximal inhibition (IC50) in data set [1] was < 10 µM.
Compound `Cc1ccc(NC(=O)Nc2ccc(C)c(Nc3nc(-c4cccnc4)cs3)c2)cc1` [Compound 026, 1-[4Methyl-3-(4-pyridin-3-yl-thiazol-2-ylamino)-phenyl]-3-p-tolyl-urea] displayed a melting point of 210 to 215 °C. The IC50 in data set [1] was < 10 µM.
Turning to `Cc1ccc(NC(=O)c2ccc(NS(=O)(=O)c3cccs3)cc2)cc1Nc1nc(-c2cccnc2)cs1` [Compound 044, N-[4Methyl-3-(4-pyridin-3-yl-thiazol-2-ylamino)-phenyl]-4-(thiophene-2-sulfonylamino)-benzamide], the melting point lay in the range of 230 to 233 °C.
`Cc1ccc(NC(=O)c2cccc(F)c2)cc1Nc1nc(-c2cccnc2)cs1` [Compound 045, 3-Fluoro-N-[4-methyl-3-(4-pyridin-3-yl-thiazol-2-ylamino)-phenyl]-benzamide]: the melting point fell in the range of 184 to 186 °C.
On the same count and under the same terms, the result for `Cc1ccc(NC(=O)c2ccc(-c3ccncc3)cc2)cc1Nc1nc(-c2cccnc2)cs1` [Compound 046, N-[4-Methyl-3-(4-pyridin-3-yl-thiazol-2-ylamino)-phenyl]-4-pyridin-4-yl-benzamide] reads 254 to 256 °C.
`Cc1ccc(NC(=O)c2ccc(N(C)C)cc2)cc1Nc1nc(-c2cccnc2)cs1` [Compound 047, 4-Dimethylamino-N-[4-methyl-3-(4-pyridin-3-yl-thiazol-2-ylamino)-phenyl]-benzamide]: the IC50 in data set [1] was < 10 µM.
The compound `Cc1ccc(F)c(C(=O)Nc2ccc(C)c(Nc3nc(-c4cccnc4)cs3)c2)c1` [Compound 048, 2-Fluoro-5-methyl-N-[4-methyl-3-(4-pyridin-3-yl-thiazol-2-ylamino)-phenyl]-benzamide] gave a melting point of 103 to 106 °C. Also, the IC50 in data set [1] is < 10 µM.
For `Cc1ccc(NC(=O)c2ccc(C(C)(C)C)cc2)cc1Nc1nc(-c2cccnc2)cs1` [Compound 049, 4-tert-Butyl-N-[4-methyl-3-(4-pyridin-3-yl-thiazol-2-ylamino)-phenyl]-benzamide], the melting point lay in the range of 145 to 150 °C. In data set [1], the IC50 is < 10 µM.
In the same order, the values of `Cc1ccc(NC(=O)c2ccc3c(c2)OCO3)cc1Nc1nc(-c2cccnc2)cs1` [Compound 051] are 130 to 132 °C and < 10 µM.
In the case of `Cc1ccc(NC(=O)c2cccc(OCCN3CCOCC3)c2)cc1Nc1nc(-c2cccnc2)cs1` [Compound 052], the melting point was 75 to 80 °C. Also, the IC50 in data set [1] is < 10 µM.
Take `Cc1ccc(NC(=O)c2ccc(CNC(=O)OC(C)(C)C)cc2)cc1Nc1nc(-c2cccnc2)cs1` [Compound 073, {4-[4-Methyl-3-(4-pyridin-3-yl-thiazol-2-ylamino)-phenylcarbamoyl]-benzyl}-carbamic acid tert-butyl ester]: the IC50 in data set [1] is < 10 µM.
In the case of `Cc1ccc(NC(=O)c2ccc(CN3CCN(C)CC3)c(C(F)(F)F)c2)cc1Nc1nc(-c2cccnc2)cs1` [Compound 075], the melting point lay in the range of 118 to 120 °C. Also, the IC50 in data set [1] was < 10 µM.
Turning to `Cc1ccc(NC(=O)c2ccc(CN3CCN(C)CC3)c(Br)c2)cc1Nc1nc(-c2cccnc2)cs1` [Compound 078, 3-Bromo-4-(4-methyl-piperazin-1-ylmethyl)-N-[4-methyl-3-(4-pyridin-3-yl-thiazol-2-ylamino)-phenyl]-benzamide], the IC50 in data set [1] was < 10 µM.
`Cc1ccc(NC(=O)c2ccc(C(C)N3CCN(C)CC3)cc2)cc1Nc1nc(-c2cccnc2)cs1` (centres unmarked) [Compound 082] displayed a melting point of 153 to 155 °C. Besides, in data set [1], the IC50 is < 10 µM.
With `Cc1cncc(-c2csc(Nc3cc(NC(=O)c4ccc(CN5CCN(C)CC5)cc4)ccc3C)n2)c1` [Compound 084, N-{4-Methyl-3-[4-(5-methyl-pyridin-3-yl)-thiazol-2-ylamino]-phenyl}-4-(4-methyl-piperazin-1-ylmethyl)-benzamide], in data set [1], the IC50 is < 10 µM.
As to `Cc1ccc(NC(=O)c2cc(Br)c(CNCCCN3CCOCC3)c(Br)c2)cc1Nc1nc(-c2cccnc2)cs1` [Compound 087, 3,5-Dibromo-N-[4-methyl-3-(4-pyridin-3-yl-thiazol-2-ylamino)-phenyl]-4-[(3-morpholin-4-yl-propylamino)-methyl]-benzamide], the IC50 in data set [1] is < 10 µM.
On to `Cc1ccc(NC(=O)c2cccc(N(C)C)c2)cc1Nc1nc(-c2cccnc2)cs1` [Compound 088, 3-Dimethylamino-N-[4-methyl-3-(4-pyridin-3-yl-thiazol-2-ylamino)-phenyl]-benzamide], for which the melting point lay within 197 to 198 °C. In data set [1], the IC50 is < 10 µM.
As to `Cc1ccc(NC(=O)c2cccc(N3CCN(C)CC3)c2)cc1Nc1nc(-c2cccnc2)cs1` [Compound 089, 3-(4-Methyl-piperazin-1-yl)-N-[4-methyl-3-(4-pyridin-3-yl-thiazol-2-ylamino)-phenyl]-benzamide], the IC50 in data set [1] is < 10 µM.
In turn, `Cc1ccc(NC(=O)c2cccc(N3CCOCC3)c2)cc1Nc1nc(-c2cccnc2)cs1` [Compound 090, N-[4-Methyl-3-(4-pyridin-3-yl-thiazol-2-ylamino)-phenyl]-3-morpholin-4-yl-benzamide] displayed a melting point of 247 to 248 °C. Besides, in data set [1], the IC50 was < 10 µM.
Compound `Cc1ccc(NC(=O)CCCN2CCOCC2)cc1Nc1nc(-c2cccnc2)cs1` [Compound 096, N-[4-Methyl-3-(4-pyridin-3-yl-thiazol-2-ylamino)-phenyl]-4-morpholin-4-yl-butyramide] yielded a melting point of 116 to 120 °C. For the same compound, in data set [1], the IC50 was < 10 µM.
Take `CN(CCOc1ccc(CC2SC(=O)NC2=O)cc1)c1ccccn1` (centres unmarked) [Rosiglitazone, rosiglitazone]: in the data set on male db/db mice (setting [2]), the “Cholesterol Effect (%)” value came out at 19%, the “Glucose Effect (%)” value worked out at 59%, the “Insulin Effect (%)” value was 77% and the “NEFA Effect (%)” value is 63%. The “Triglycerides Effect (%)” value in the data set on male db/db mice (setting [2]) amounted to 71%. The compound further came in with an NEFA in the data set on male db/db mice (serum non esterified fatty acids, male db/db mice, 10 mg/kg p.o. once daily for 5 days, T5, mean ± SEM, n = 5) of 0.31 ± 0.061 mM. In the data set with male db/db mice (setting [3]), this compound showed a Cholesterol of 2.74 ± 0.47 mM, a Glucose of 11.25 ± 2.65 mM, an Insulin of 0.82 ± 0.27 nM and a Triglycerides of 0.46 ± 0.10 mM.
